# Measured values: patent US20210252047A1, “USE OF HALOGEN COMPOUNDS FOR THE TREATMENT AND PREVENTION OF TISSUE INJURY AND POST-INTENSIVE CARE SYNDROME” (Faraday Pharmaceuticals, Inc., priority 2018, published 2021)
# Tests used:
# [1] = system: mice subjected to hindlimb ischemia reperfusion injury; test: Hindlimb ischemia reperfusion injury (2 hours ischemia, 3 hours reperfusion), Example 1; assay type: in vivo, C57BL/6 mice
# Protocol: Anesthetized adult male C57BL/6 mice were subjected to hindlimb ischemia reperfusion injury (bilateral leg tourniquets for 2 hours (ischemia) followed by 3 hours of reperfusion after tourniquet removal). To determine whether exogenous iodide could reduce damage to heart and lung tissue caused by the ischemia reperfusion injury, various doses of iodide (0 mg/kg, 1 mg/kg, 10 mg/kg or 20 mg/kg) were administered intravenously (i.v.) by the retro orbital (r.o.) to the animals 5 minutes prior to reperfusion of the hind limb.
# The animals were then sacrificed and blood (plasma) and lung and GC muscle samples obtained. The blood (plasma) samples were assayed to determine the concentrations of creatine kinase and cardiac troponin present in each. In addition, the amount of edema present in the lung and GC muscle was determined as wet weight/dry weight.
# [2] = system: mice subjected to bilateral hind limb ischemia; test: Bilateral hind-limb ischemia model of systemic inflammation, Study A (2 hours ischemia, 3 hours reperfusion); assay type: in vivo, C57Bl/6 mice; conditions: after 3 hours of reperfusion
# Protocol: (§1) A bilateral hind-limb ischemia model was used to induce systemic inflammation. Male C57Bl/6 mice (7-10 weeks old) were subjected to 2 hours of bilateral hind limb ischemia followed by 3 hours of reperfusion. Ischemia was induced by application of latex o-rings above the greater trochanter using a McGivney Hemorrhoidal ligator. After 3 hours of reperfusion, the plasma was analyzed for levels of creatine kinase (CK), or other markers of organ injury: blood urea nitrogen (BUN), alanine aminotransferase (ALT), and aspartate aminotransferase (AST).
# A 1, 3, 10, or 20 mg/kg bolus of sodium iodide was administered intravenously (i.v.) by the retro orbital (r.o.) route 5 minutes prior to reperfusion of the hind limbs.
# [3] = system: mice subjected to bilateral hind limb ischemia; test: Hind limb ischemia survival, Study B (2.5 hours ischemia, NaI in drinking water); assay type: in vivo, C57Bl/6 mice
# Protocol: as §1
# The model used to evaluate survival was similar to that previously described for Study A; however, the time of ischemia was increased to 2.5 hours. The time from reperfusion to death was monitored for the next 24 hours.
# The drinking water of the mice was supplemented with 84 μM NaI and the mice were allowed ad libitium access (p.o.) to this water for >5 days prior to hind limb ischemia.
# [4] = system: mice subjected to bilateral hind limb ischemia; test: Hind limb ischemia survival, Study C (3 hours ischemia, i.v. bolus); assay type: in vivo, C57Bl/6 mice
# Protocol: as §1
# The model used to evaluate survival was similar to that previously described for Study A; however, the time of ischemia was increased to 3 hours. The time from reperfusion to death was monitored for the next 2 months.
# A 1 mg/kg bolus of sodium iodide was administered intravenously (i.v.) by the retro orbital (r.o.) route 5 minutes prior to reperfusion of the hind limbs.
# [5] = system: mice subject to bilateral hind limb ischemia (HLI); test: Hind limb ischemia (HLI) cytokine levels in muscle and plasma, Example 3; assay type: in vivo, C56Bl/6 mice; conditions: 24 hours after reperfusion
# Protocol: A mouse model of hind limb ischemia was utilized to induce intramuscular and systemic inflammation. Male C56Bl/6 mice˜7-10 weeks old were subject to bilateral hind limb ischemia (HLI) by placing an O-ring on both hind limbs for 2.5 hours. Five minutes prior to reperfusion an intravenous bolus of sodium iodide (NaI; FDY-5301) at a concentration of 1 mg/kg was delivered. Vehicle treated animals received an i.v. bolus of saline. After i.v. delivery, at the 2.5 hour mark, the O-rings were cut off and removed to allow for tissue reperfusion. The mice were sacrificed 24 hours following reperfusion. Upon sacrifice, whole blood was removed (plasma was then separated and frozen at −80° C.), the gastronemius muscle was removed and snap frozen in liquid nitrogen and then stored at −80° C. The cytokines were evaluated on a MAGPIX® instrument (Luminex Corp) using a custom multiplex assay kit from MilliporeSigma (MCYTOMAG-70K-09, containing: INF-γ, IL-18, IL-2, IL-6, IL-10, KC, LIX, MIP-2 & TNF-α.
# [6] = i.v. administration 5 minutes prior to reperfusion, FIG. 2
# [7] = 1 mg/kg i.v. bolus 5 minutes prior to reperfusion, 2.5 h ischemia, p<0.05, FIG. 7
smiles,measurement,setting,value
[I-].[Na+] [sodium iodide],plasma CK (creatine kinase) levels compared to vehicle,"[1]; 1 mg/kg, 10 mg/kg or 20 mg/kg i.v. (retro orbital) 5 minutes prior to reperfusion, 2 h ischemia, 3 h reperfusion, FIG. 1A",significantly reduced
same,level of cardiac troponin,"[1]; 10 mg/kg i.v. 5 minutes prior to reperfusion, plasma, 2 h ischemia, 3 h reperfusion, FIG. 1B",significantly reduced
same,"muscle edema (gastrocnemius), wet weight/dry weight",[1]; [6],reduced
same,"pulmonary edema (lung), wet weight/dry weight",[1]; [6],reduced
same,plasma CK levels compared to vehicle,"[2]; 1 mg/kg i.v. bolus 5 minutes prior to reperfusion, FIG. 3",significantly reduced
same,plasma level of blood urea nitrogen (BUN),"[2]; 1, 3, 10 or 20 mg/kg i.v. bolus 5 minutes prior to reperfusion, FIG. 4A",reduced
same,plasma level of alanine aminotransferase (ALT),"[2]; 1, 3, 10 or 20 mg/kg i.v. bolus 5 minutes prior to reperfusion, FIG. 4B",reduced
same,plasma level of aspartate aminotransferase (AST),"[2]; 1, 3, 10 or 20 mg/kg i.v. bolus 5 minutes prior to reperfusion, FIG. 4C",reduced
same,animals alive at 24 hours,"[3]; 84 μM in drinking water (p.o.) >5 days prior to ischemia, vehicle 50%",90%
same,survival compared to vehicle,"[3]; 84 μM in drinking water ad libitum (p.o.) >5 days prior to ischemia, monitored 24 hours, FIG. 5",significantly increased
same,survival compared to vehicle administration,[4]; 1 mg/kg i.v. bolus 5 minutes prior to reperfusion,increased
same,animals alive after 72 hours,"[4]; 1 mg/kg i.v. bolus 5 minutes prior to reperfusion, vehicle 0%, FIG. 6A",20%
same,further survival of the animals alive after 72 hours (study ended at this point),"[4]; 1 mg/kg i.v. bolus, FIG. 6B",≥ 2 months
same,plasma IL-6,"[5]; 1 mg/kg i.v. bolus 5 minutes prior to reperfusion, 2.5 h ischemia, FIG. 8",significant reduction
same,IL-6 in muscle tissue,[5]; [7],significant reduction
same,IL-10 in muscle tissue,[5]; [7],significant reduction
same,KC in muscle tissue,[5]; [7],significant reduction
same,MIP-2 in muscle tissue,[5]; [7],significant reduction
same,"inflammation, heat map of all cytokines assessed in muscle or plasma","[5]; 1 mg/kg i.v. bolus, FIGS. 9 and 10",overall reduction
same,cytokine levels in plasma,[5]; FIG. 8,significantly reduced
same,"cytokine levels in muscle tissue (IL-6, IL-10, CXCL1 or KC, MIP-2)",[5]; FIGS. 7A-7D,significantly reduced
